The values that follow come from patent US11400057B2, “Treatment of vulvar pain” (University of Rochester, priority 2018, dated 2022).

Entries after “also recorded” stand apart in the source; their conditions may differ.

For experiment [1], the system named is PGE2 production from mouse vulvar tissue. The experiment is described as follows: Mouse vulvar explants (4 mm punch biopsy) stimulated with IL-1β: PGE2 production. The class given is cell-based. The conditions noted are these: FIG. 5. Here is the method:
FIG. 5 is a diagram showing that compounds of Formula (I) (F (I)) inhibit PGE2 production from mouse vulvar tissue. Mouse vulvar tissue (4 mm punch biopsies) was collected and bisected then pre-treated in culture medium with either Maresin 1 at indicated concentrations for 18 hours, followed by an additional 18 hours stimulation with IL-1β (10 pg/ml). Culture medium was collected and analyzed for PGE2 content. Mean+/−SEM; n=3 replicate cultures. ANOVA * p<0.05 vs. vehicle.
Inventors first confirmed that mouse vulvar tissues responded to compounds of Formula (I) treatment in vitro by culturing mouse vulvar explants (4 mm punch biopsy). The explants were stimulated with IL-1β, and then assays were carried to assess the ability of Maresin 1 to reduce PGE2 production under the established pre-treatment regimen.
It was also determined that these mice expressed several SPM receptors (e.g., ALX, GPR18). Therefore, inventors proceeded with testing responses to compounds of Formula (I) in the mouse model.

The test system of experiment [2] is vulvar allodynia (pain threshold). The experiment in a line: Mouse model of LPV: Zymosan-induced vulvar allodynia, pain threshold by electronic von Frey. The class given is in vivo, C57BL/6 mouse. The conditions noted are these: C57BL/6 mice with established Zymosan-induced allodynia, topical daily 1 μg/mouse/day for 4 weeks. The text has this:
FIGS. 6A, 6B and 6C are a set of photographs and diagrams showing pain testing for in vivo mouse vulvodynia model. Panel A: After Zymosan injection, inflammation and redness become apparent. Arrow indicates injection site. Panel B: Image showing how an electronic von Frey hair (Mousemet) is used to apply force to the mouse vulva. Panel C: Schematic of in vivo mouse model to establish then resolve vulvar allodynia. FIG. 7 is a diagram showing representative pain profile for a C57BL/6 mouse. […] In the mouse model, Zymosan (a pro-inflammatory yeast cell wall preparation) was used to induce sustained vulvar allodynia, measured by pain threshold testing. Inventors initially used a manual von Frey system (MvF)^24, but later switched to an electronic system as detailed herein. […] However, inventors implemented several modifications to improve the robustness of the model including the following: 1) use a genetically tractable inbred strain; 2) validation of the use of an electronic von Frey (EvF) system; 3) assessment of the impact of behavioral conditioning on pain response; 4) weekly collection of vulvovaginal lavages for pro-inflammatory mediator quantification; and 5) testing the ability of a selected compound of Formula (I) (e.g., Maresin 1) to modulate pain and inflammation in our new model. […]

Experiment [3] has as its system prostaglandin E2 (PGE2) production by human vulvar fibroblasts. The experiment is described as follows: In vitro LPV model: PGE2 production by patient vestibular or vulvar fibroblasts. The class given is cell-based. The note with it: for PGE2 levels: post-treatment regimen: IL-1β 30 min first, then 5 nM for 18 hours plus booster dose for 6 hr, already activated cells, FIG. 4C; for PGE2 production: pre-treatment regimen, 5 nM, activated with IL-1β (10 pg/ml) 48 hr, vestibular and external vulvar fibroblasts, FIG. 4A. How it is done: (§1) FIGS. 4A, 4B, 4C, and 4D are a set of diagrams showing that PGE2 and IL-6 production is reduced by compounds of Formula (I). Patient vestibular or vulvar fibroblasts were pre-treated for 10 hours with Maresin land epi-Maresin 1 at a 5 nM concentration, then activated with IL-1β (Panel A; 10 pg/ml) or bradykinin (Panel B; 100 nM) for 48 hr. Culture media were collected and analyzed for PGE2 (Panel A) or IL-6 (Panel B) content. Patient fibroblasts were also activated first with IL-1β for 30 min then treated with 5 nM Maresin 1 for 18 hours, followed by a booster dose for 6 hr. Culture media were collected and analyzed for PGE2 (Panel C) or IL-6 (Panel D) content. Mean+/−SEM of n=3, ANOVA *p<0.05 vs. activation only (no compounds of Formula (I) (F (I))).
(§2) In this example, a fibroblast-based in vitro LPV model was established. Briefly, fibroblast strains were obtained from two regions (FIG. 1) of the lower genital tract of localized provoked vulvodynia (LPV) cases and pain-free controls in the manner described in Falsetta et al. Am J Obstet Gynecol 2015, vol. 213, pp. 38 e1-12 and Foster et al., Pain 2015, vol. 156, pp. 386-96.
(§3) Over 30 paired fibroblast strains obtained from LPV-afflicted cases (fulfilling Friedrich's Criteria)^25 and age/race-matched (critical variables influencing LPV),^26, 27 pain-free controls were obtained. All subjects who contributed to the library were premenopausal, denied oral corticosteroids, non-steroidal, immunomodulatory, or anti-inflammatory medication use, and reported an absence of systemic/cutaneous inflammatory conditions at the time of sample collection. Mechanical pain thresholds were determined (via a method of limits) (0.5-5 N) using a Wagner algometer. Fibroblast identity was confirmed by microscopy and fibroblast markers (vimentin, collagen); only low passage (˜4) cells are used.
(§4) In this example, assays were carried out to investigate the ability of compounds of Formula (I) to reduce pro-inflammatory and pro-pain mediator production from primary human cells in the in vitro LPV model described in Example 1.
(§5) The inventors used one of two treatment regimens proven effective in vulvar fibroblasts and other cells at low/nanomolar concentrations (1-100 nM): 1) overnight pre-treatment, followed by another treatment 30 min prior to stimulation with pro-inflammatory stimuli for 48 hr with a third dose of a compound of Formula (I) at 24 hr post-challenge, or 2) post-treatment a compound of Formula (I) after a 30 min pre-treatment with inflammatory stimuli, followed by a booster dose 18 hr later. Both treatment regimens are of interest, as compounds of Formula (I) are active throughout the inflammatory process.^5-7 Even the compound of Formula (I) administered after LPV onset are likely to prevent the worsening or spread of LPV pain.

Experiment [4] concerns interleukin-6 (IL-6) production by human vulvar fibroblasts. The experiment is described as follows: In vitro LPV model: IL-6 production by patient vestibular or vulvar fibroblasts. The class given is cell-based. The note with it: for IL-6 levels: post-treatment regimen: IL-1β 30 min first, then 5 nM for 18 hours plus booster dose for 6 hr, already activated cells, FIG. 4D; for IL-6 production: pre-treatment regimen, 5 nM, activated with bradykinin (100 nM) 48 hr, vestibular and external vulvar fibroblasts, FIG. 4B. How it is done: as §1, §2, §3, §4, §5

Experiment [5] concerns PGE2 in vaginal lavage. The experiment is described as follows: Mouse model of LPV: PGE2 content in vaginal lavage. The conditions noted are these: C57BL/6 mice with established Zymosan-induced allodynia, topical daily 1 μg/mouse/day for 4 weeks, FIG. 8. It counts as in vivo, C57BL/6 mouse. The text has this:
FIG. 8 is a diagram showing that PGE2 in vaginal lavage is associated with pain threshold. After induction of allodynia for up to 6 weeks (indicated by reduced pain threshold, red line), Maresin 1 was applied to C57BL/6 mouse vulvas to reduce pain and increase pain threshold. PGE2 content in vaginal lavage samples (blue line) […], indicating pain-associated inflammation waning with treatment. SEM shown, n=8.
Using this approach, inventors confirmed that one could induce vulvar allodynia, measure pain responses via mechanical threshold determination, and assess treatment responses. However, inventors implemented several modifications to improve the robustness of the model including the following: 1) use a genetically tractable inbred strain; 2) validation of the use of an electronic von Frey (EvF) system; 3) assessment of the impact of behavioral conditioning on pain response; 4) weekly collection of vulvovaginal lavages for pro-inflammatory mediator quantification; and 5) testing the ability of a selected compound of Formula (I) (e.g., Maresin 1) to modulate pain and inflammation in our new model. […]

Consider `CC/C=C\C/C=C\C[C@H](O)\C=C/C=C/C=C/[C@H](O)C/C=C\CCC(=O)O` [Maresin 1, 7R,14S-dihydroxy-docosa-4Z,8E,10E,12Z,16Z,19Z-hexaenoic acid], for which the “PGE2 responses following IL-1β treatment” value in experiment [1] (pre-treated 18 hours, then 18 hours IL-1β (10 pg/ml)) is listed as “significantly suppressed”. For the same compound, in experiment [1] (pre-treatment regimen, IL-1β (10 pg/ml)), the “lowest dose with significant suppression of PGE2 response” value amounted to 1 nM. The pain threshold result in experiment [2] (FIG. 7, 8) is on record as “complete restoration to the pre-induction thresholds; also recorded: values returned to baseline”; in experiment [2] (FIG. 7, 8, listed as Maresin-1), “increased pain thresholds”. Moreover, the results for the PGE2 levels entry in experiment [3] and in experiment [3] (listed as Maresin-1) were “significantly reduced” and “highly effective in reducing”, respectively. Moreover, in experiment [3], the PGE2 production result is recorded as “significantly reduced”. Further, the IL-6 levels result in experiment [4] was “significantly reduced”; in experiment [4] (listed as Maresin-1), “highly effective in reducing”. Besides, the IL-6 production result in experiment [4] is “significantly reduced”. For the same compound, the “PGE2 levels in vulvovaginal lavage” value was “suppressed and maintained at levels below baseline” in experiment [5]; “suppressing PGE2 levels” in experiment [5] (listed as Maresin-1).
On to `CC/C=C\C/C=C\C[C@H](O)\C=C/C=C/C=C/[C@@H](O)C/C=C\CCC(=O)O` [epi-Maresin 1, 7S,14S-dihydroxy-docosa-4Z,8E,10E,12Z,16Z,19Z-hexaenoic acid], for which the PGE2 production entry in experiment [3] was “significantly reduced”. In addition, the IL-6 production entry in experiment [4] is reported as “significantly reduced”.
